# Data taken from patent US20180012623A1, “Ionic Liquid, Lubricant, and Magnetic Recording Medium” (Dexerials Corporation, priority 2016, published 2018).
# Where two headings read alike, the source gives them in different places.
# How the values were obtained:
# [1] = Solubility test of ionic liquids in Vertrel XF and n-hexane (visual observation)
# Experimental: To a predetermined amount of Vertrel XF or n-hexane, the ionic liquid was added. Ultrasonic waves were applied to the resultant mixture for 5 minutes, followed by leaving the mixture to stand for 1 day. The solubility was visually observed.
# After applying ultrasonic waves to the resultant for 5 minutes, the resultant was left to stand for 1 day. Thereafter, the solubility was visually observed and evaluated based on the following evaluation criteria. […] Similarly, after applying ultrasonic waves to the resultant for 5 minutes, the resultant was left to stand for 1 day. Thereafter, the solubility was visually observed and evaluated based on the following evaluation criteria.
# Note that, the solubility was visually observed, and it was judged as soluble when it was transparent. Moreover, it was judged as not soluble (insoluble) when it was opaque or insoluble components were observed.
# The results are presented in Table 2. • [Evaluation Criteria]
# • 0.2% by mass or greater:
# Soluble with addition of 0.2 parts by mass • Less than 0.2% by mass:
# Insoluble with addition of 0.2 parts by mass
# <<n-Hexane>> • 0.5% by mass or greater:
# Soluble with addition of 0.5 parts by mass • Less than 0.5% by mass:
# Insoluble with addition of 0.5 parts by mass
# [2] = Measurement of thermal stability (TG/DTA weight reduction temperature); type: physicochemical; conditions: for Weight reduction temperature 5% / Weight reduction temperature 10% / Weight reduction temperature 20%: TG/DTA, 30° C. to 600° C., 10° C./min, air 200 mL/min; for Weight reduction temperatures higher than those of Z-TETRAOL by: compared with Z-TETRAOL (Comparative Example 7C); for Weight reduction temperatures higher than those of Z-DOL by: compared with perfluoropolyether Z-DOL (Comparative Example 6C)
# [3] = in acetonitrile; cited from earlier work
# [4] = Vertrel XF [CF3(CHF)2CF2CF3], 25° C., 0.2 parts by mass added to 100 parts by mass, ultrasonic 5 minutes, left 1 day, visual
# [5] = n-hexane, 25° C., 0.5 parts by mass added to 100 parts by mass, ultrasonic 5 minutes, left 1 day, visual
Compound,Weight reduction temperature 5% [2],Weight reduction temperature 10% [2],Weight reduction temperature 20% [2],Weight reduction temperatures higher than those of Z-TETRAOL by [2],Weight reduction temperatures higher than those of Z-DOL by [2],pKa [3],further results
"CCCCCCCCCCCCn1ccnc1CCCCCCCCCCC.O=S(=O)(NS(=O)(=O)C(F)(F)C(F)(F)C(F)(F)C(F)(F)F)C(F)(F)C(F)(F)C(F)(F)C(F)(F)F [Ex. 2A, bis(nonafluorobutanesulfonyl)imide-1-dodecyl-2-undecylimidazolium]",337.7 °C,361.6 °C,383.8 °C,≥ 100 °C,≥ 160 °C,–,"Solubility, Fluorine-based solvent [1, 4]: ≥ 0.2% by mass; Solubility, Fluorine-based solvent ([1]; Vertrel XF [CF3(CHF)2CF2CF3], 25° C., 0.2 parts by mass added to 100 parts by mass, ultrasonic 5 minutes, left 1 day, visual, listed as Example 2A): ≥ 0.2 % by mass; Solubility, n-Hexane [1, 5]: ≥ 0.5% by mass; Solubility, n-Hexane ([1]; n-hexane, 25° C., 0.5 parts by mass added to 100 parts by mass, ultrasonic 5 minutes, left 1 day, visual, listed as Example 2A): ≥ 0.5 % by mass"
"CCCCCCCCCCCCCCCCCCn1ccnc1CCCCCCCCCCC.O=S(=O)(NS(=O)(=O)C(F)(F)C(F)(F)C(F)(F)C(F)(F)F)C(F)(F)C(F)(F)C(F)(F)C(F)(F)F [Ex. 4A, bis(nonafluorobutanesulfonyl)imide-1-octadecyl-2-undecylimidazolium]",329.1 °C,362.4 °C,388.4 °C,≥ 90 °C,≥ 160 °C,–,–
"CCCCCCCCCCCCCCCCCCn1ccnc1CCCCCCCCCCCCCCCCC.O=S(=O)(O)C(F)(F)C(F)(F)C(F)(F)C(F)(F)F [4A, nonafluorobutanesulfonic acid-1-octadecyl-2-heptadecyimidazole, reference compound]",338.2 °C,365.9 °C,390.1 °C,–,–,–,"Solubility, Fluorine-based solvent [1, 4]: less than 0.2% by mass; Solubility, n-Hexane [1, 5]: less than 0.5% by mass"
nonafluorobutanesulfonic acid-1-dodecyl-2-undecylimidazolium [Ex. 1A],349.4 °C,374.1 °C,398.9 °C,≥ 100 °C,≥ 170 °C,–,–
"nonafluorobutanesulfonic acid-2-heptadecylimidazole [3A, reference compound]",365.4 °C,390.5 °C,414.3 °C,–,–,–,–
nonafluorobutanesulfonic acid-1-octadecyl-2-undecylimidazolium [Ex. 3A],328.3 °C,368.1 °C,396.7 °C,≥ 80 °C,≥ 170 °C,–,–
"CCCCCCCCCCCCCCCCCC[n+]1ccn(CCCC)c1.O=S1(=O)[N-]S(=O)(=O)C(F)(F)C(F)(F)C1(F)F [2A, hexafluorocyclopropane-1,3-bis(sulfonyl)imide-1-butyl-3-n-octadecylimidazolium, reference compound]",347.2 °C,367.0 °C,387.8 °C,–,–,–,"Solubility, Fluorine-based solvent [1]: less than 0.2% by mass; Solubility, n-Hexane [1]: less than 0.5% by mass"
"O=S1(=O)NS(=O)(=O)C(F)(F)C(F)(F)C1(F)F [hexafluorocyclopropane-1,3-bis(sulfonyl)imide]",–,–,–,–,–,−0.8,–
"nonafluorobutanesulfonic acid-1-octadecylimidazolium [1A, reference compound]",349.3 °C,375.0 °C,397.5 °C,–,–,–,–
F[B-](F)(F)F.[H+] [tetrafluoroboric acid],–,–,–,–,–,1.8,–
"pentadecafluorooctanoic acid octadecyl ammonium [5A, reference compound]",206.9 °C,215.8 °C,223.4 °C,–,–,–,Thermal stability (in words) ([2]; summary of Table 3): lacking in thermal stability
O=S(=O)(NS(=O)(=O)C(F)(F)C(F)(F)C(F)(F)C(F)(F)F)C(F)(F)C(F)(F)C(F)(F)C(F)(F)F [bis(nonafluorobutanesulfonyl)imide],–,–,–,–,–,0.0,–
perfluorocyclopropane sulfoimide,–,–,–,–,–,−0.8,–
